{
  "source": "paper PMC5531494",
  "about": "“Target specificity, in vivo pharmacokinetics, and efficacy of the putative STAT3 inhibitor LY5 in osteosarcoma, Ewing's sarcoma, and rhabdomyosarcoma” (PLoS ONE, 2017)",
  "key": {"[1]": {"target": "T1, STAT2 (Homo sapiens, UniProt P52630)", "T1 construct": "endogenous in cells; host or cells: SJSA", "T1 sequence (P52630 whole entry)": "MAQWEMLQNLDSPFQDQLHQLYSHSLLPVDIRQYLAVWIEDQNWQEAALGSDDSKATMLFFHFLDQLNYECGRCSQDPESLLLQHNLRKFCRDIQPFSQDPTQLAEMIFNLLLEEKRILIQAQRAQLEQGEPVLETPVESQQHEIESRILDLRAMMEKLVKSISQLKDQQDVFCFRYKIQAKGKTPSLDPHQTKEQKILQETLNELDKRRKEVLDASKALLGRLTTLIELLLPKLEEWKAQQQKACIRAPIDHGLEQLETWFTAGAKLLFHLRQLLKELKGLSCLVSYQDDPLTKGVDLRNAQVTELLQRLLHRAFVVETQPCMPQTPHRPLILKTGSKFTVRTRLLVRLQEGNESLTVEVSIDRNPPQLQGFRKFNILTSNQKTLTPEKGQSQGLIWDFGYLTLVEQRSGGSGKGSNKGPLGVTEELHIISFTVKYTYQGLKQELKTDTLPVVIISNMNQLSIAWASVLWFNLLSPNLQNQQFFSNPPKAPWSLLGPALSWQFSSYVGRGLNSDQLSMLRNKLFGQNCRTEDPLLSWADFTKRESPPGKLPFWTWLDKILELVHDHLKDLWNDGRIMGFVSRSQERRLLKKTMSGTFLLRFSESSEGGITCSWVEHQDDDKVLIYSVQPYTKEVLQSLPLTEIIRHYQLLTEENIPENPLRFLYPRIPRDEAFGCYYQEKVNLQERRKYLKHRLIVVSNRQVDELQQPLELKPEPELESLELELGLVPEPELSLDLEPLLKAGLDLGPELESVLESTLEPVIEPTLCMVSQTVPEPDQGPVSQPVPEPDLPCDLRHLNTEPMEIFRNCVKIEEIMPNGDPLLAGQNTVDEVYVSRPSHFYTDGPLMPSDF", "experiment": "Cytokine-induced STAT2 phosphorylation in SJSA cells, Western blot", "assay_type": "cell-based", "settings": "induced by IFN-γ, IFN-α, or IL-4", "procedure": "Cell lysis, protein isolation and immunoblotting were performed as described previously. Twenty micrograms of protein were resolved using 4–12% Bis-Tris polyacrylamide gels. Gels were transferred to PVDF membranes and subjected to blocking and incubation with primary and secondary antibodies. The primary antibodies used in this study included: phospho-STAT3 (Tyr705, Cell Signaling, Boston, MA and Abcam, Cambridge, MA), total STAT3 (Cell Signaling and Abcam), phospho-STAT1 (Cell Signaling), total STAT1 (Cell Signaling), phospho-STAT2 (Cell Signaling), phospho-STAT4 (Cell Signaling), phospho-STAT6 (Cell Signaling), and GAPDH (Cell Signaling). Protein bands were detected using Western Lightning ® Plus Enhanced Chemiluminescence substrate (Perkin Elmer, Waltham, MA) and HyBlot CL ® Autoradiography film (Denville Scientific, Holliston, MA). The cytokines used in this study included: interferon gamma (IFN-γ, Cell Signaling), interferon alpha (IFN-α, Cell Signaling), interleukin-4 (IL-4, Cell Signaling), interleukin-6 (IL-6, Cell Signaling), and oncostatin M (OSM, Cell Signaling).\nFig 1 LY5 inhibits pSTAT3 in sarcoma cell lines. (A) The tumor cell lines RH30, EW8, and RD were treated with increasing concentrations of LY5 for 30 minutes. Cell lysates were collected for Western blotting of p-STAT3, total STAT3, and GAPDH. GAPDH was used as loading control. […]"}, "[2]": {"test_system": "ES-3 cells", "experiment": "Alamar Blue cell viability assay", "assay_type": "cell-based", "settings": "Homo sapiens; ES-3, 96 hours", "procedure": "(§1) Sarcoma cell lines were seeded in 24-well plates in 1X RPMI medium containing 10% fetal bovine serum. Cells were then incubated with DMSO (control) or concentrations of LY5 ranging from 10 nM to 10 μM for 96 hrs. At the end of the incubation period, Alamar Blue (Invitrogen, Carlsbad, CA) was added to cells at one-tenth the volume of the cell culture medium and incubated for 3 hrs at 37° C in the dark. Fluorescence was then measured at an excitation/emissions wavelength of 570/590 nm and emission wavelength of 590 nm.\n(§2) Fig 2 Biologic activity of LY5 in sarcoma cell lines. Dose response curves for LY5: RMS cell lines (RH30, RD, JR-1), ES cell lines (ES-3, ES-6, ES-7, ES-8), and an OS cell line (OS-17) were treated with LY5 (concentrations ranging from 10 nM to 10 μM) for 96 hours. Cell viability was determined using Alamar Blue staining. IC50 values are indicated for each cell line. Analyses were performed in triplicate and data are plotted as means ± standard deviation."}, "[3]": {"test_system": "ES-6 cells", "experiment": "Alamar Blue cell viability assay", "assay_type": "cell-based", "settings": "Homo sapiens; ES-6, 96 hours", "procedure": "as §1, §2"}, "[4]": {"test_system": "ES-7 cells", "experiment": "Alamar Blue cell viability assay", "assay_type": "cell-based", "settings": "Homo sapiens, ES7; ES-7, 96 hours", "procedure": "as §1, §2"}, "[5]": {"test_system": "ES-8 cells", "experiment": "Alamar Blue cell viability assay", "assay_type": "cell-based", "settings": "Homo sapiens, ES8; ES-8, 96 hours", "procedure": "as §1, §2"}, "[6]": {"test_system": "JR-1 cells", "experiment": "Alamar Blue cell viability assay", "assay_type": "cell-based", "settings": "Homo sapiens; JR-1, 96 hours", "procedure": "as §1, §2"}, "[7]": {"test_system": "OS-17 cells", "experiment": "Alamar Blue cell viability assay", "assay_type": "cell-based", "settings": "Homo sapiens; OS-17, 96 hours", "procedure": "as §1, §2"}, "[8]": {"test_system": "RD cells", "experiment": "Alamar Blue cell viability assay", "assay_type": "cell-based", "settings": "Homo sapiens, 96 hours", "procedure": "as §1, §2"}, "[9]": {"test_system": "RH30 cells", "experiment": "Alamar Blue cell viability assay", "assay_type": "cell-based", "settings": "Homo sapiens; RH30, 96 hours", "procedure": "as §1, §2"}, "[10]": {"target": "T2, STAT3 (Mus musculus, UniProt P42227)", "T2 construct": "endogenous in cells; host or cells: K7M2", "T2 sequence (P42227 whole entry)": "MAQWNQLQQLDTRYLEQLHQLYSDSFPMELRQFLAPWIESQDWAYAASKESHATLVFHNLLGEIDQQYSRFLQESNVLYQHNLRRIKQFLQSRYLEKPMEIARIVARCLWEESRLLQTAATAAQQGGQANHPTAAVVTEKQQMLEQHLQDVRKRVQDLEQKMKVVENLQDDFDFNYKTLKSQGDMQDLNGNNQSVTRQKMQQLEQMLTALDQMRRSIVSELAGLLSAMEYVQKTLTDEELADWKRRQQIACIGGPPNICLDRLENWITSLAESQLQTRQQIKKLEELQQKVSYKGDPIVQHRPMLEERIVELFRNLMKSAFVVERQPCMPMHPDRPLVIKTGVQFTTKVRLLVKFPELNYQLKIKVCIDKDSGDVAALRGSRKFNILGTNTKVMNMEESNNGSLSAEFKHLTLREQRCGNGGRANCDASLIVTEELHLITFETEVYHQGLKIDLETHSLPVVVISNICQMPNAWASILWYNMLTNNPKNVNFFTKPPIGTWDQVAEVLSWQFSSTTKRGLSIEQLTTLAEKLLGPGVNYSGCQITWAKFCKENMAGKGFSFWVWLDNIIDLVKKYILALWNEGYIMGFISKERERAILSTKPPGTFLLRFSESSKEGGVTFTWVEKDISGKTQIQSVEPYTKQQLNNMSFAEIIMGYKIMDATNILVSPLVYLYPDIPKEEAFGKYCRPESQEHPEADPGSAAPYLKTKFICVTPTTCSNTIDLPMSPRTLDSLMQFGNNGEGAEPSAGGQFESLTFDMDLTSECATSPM", "experiment": "Western blot of pSTAT3 in K7M2 cells", "assay_type": "cell-based, murine", "procedure": "Murine K7M2 and human MG63.3 OS cells were treated with increasing concentrations of LY5 for 2 hrs or 7 hrs. Western blotting was performed for pSTAT3 and STAT3 as indicated above to confirm inhibition of STAT3 phosphorylation in the cell lines prior to initiation of the PuMA assay. In addition, a sulforhodamine B colorimetric assay was performed to assess the cytotoxicity of LY5 in K7M2 and MG63.3 cells as previously described.\n(§3) MG63.3 and K7M2 cell lines were exposed to increasing concentrations of LY5 to determine the IC50 (A). Western blot analysis was performed to determine the dose and duration of LY5 exposure required to inhibit STAT3 phosphorylation (B-C). Serial imaging of fluorescently labeled MG63.3 and K7M2 cells was performed in ex vivo LY5 treated lung sections (D). Metastatic burden was quantified by evaluation of the percent tumor burden (mean normalized fluorescent area). Data are reported as the mean ± standard deviation. In MG 63.3 experiment, p < 0.0001 Kruskal-Wallis test, p < 0.05 10 μM vs control at days 7, 14, and 21, 10 μM vs 1 μM at days 7, 14, and 21, 50 μM vs control at days 7, 14, and 21, and 50 μM vs 10 μM at days 7, 14, and 21 post-test Dunn. In K7M2 experiment, p < 0.0001 Kruskal-Wallis test, p < 0.05 10 μM vs control at days 14 and 21, 10 μM vs 0.1 μM at days 14 and 21, and 10 μM vs 1 μM at days 14 and 21, post-test Dunn."}, "[11]": {"test_system": "MG63.3 cells", "experiment": "Ex vivo pulmonary metastasis assay (PuMA)", "assay_type": "cell-based, human", "settings": "MG 63.3, 10 μM and 50 μM LY5, up to 21 days", "procedure": "GFP-positive K7M2 and MG63.3 cells (3 x 10^5 MG63.3; 5 x 10^5 K7M2) were administered via tail vein injection into mice. Following humane euthanasia, the lungs were insufflated with a culture medium/agarose mixture to a constant hydrostatic pressure of 20 cm H2O and prepared for ex vivo culture as previously described. Lung sections were cultured in complete media containing LY5 (0, 0.1, 1, 10 or 50 μM) on sterile Gelfoam using 6 lung sections per treatment condition. Media was changed every 48 hrs and lung slices were imaged with a fluorescent microscope every 7 days for a total of 21 days.\nas §3, with “In K7M2 experiment, p < 0.0001 Kruskal-Wallis test, p < 0.05 10 μM vs control at days 14 and 21, 10 μM vs 0.1 μM at days 14 and 21, and 10 μM vs 1 μM at days 14 and 21, post-test Dunn.” left out"}},
  "data": [
    {"smiles": "NS(=O)(=O)c1cccc2c1C(=O)C=C(Nc1cccnc1)C2=O", "note": "[LY5, 5,8-dioxo-6-(pyridin-3-ylamino)-5,8-dihydronaphthalene-1-sulfonamide]", "values": [
      {"measurement": "phosphorylation of STAT2", "setting": "[1]", "value": "did not inhibit"},
      {"measurement": "IC50", "setting": "[2]", "value": 3420, "unit": "nM"},
      {"measurement": "IC50", "setting": "[3]", "value": 5060, "unit": "nM"},
      {"measurement": "IC50", "setting": "[4]", "value": 2150, "unit": "nM"},
      {"measurement": "IC50", "setting": "[5]", "value": 2000, "unit": "nM"},
      {"measurement": "IC50", "setting": "[6]", "value": 271, "unit": "nM"},
      {"measurement": "IC50", "setting": "[7]", "value": 1430, "unit": "nM"},
      {"measurement": "IC50", "setting": "[8]", "value": 204, "unit": "nM"},
      {"measurement": "IC50", "setting": "[9]", "value": 428, "unit": "nM"},
      {"measurement": "concentration for complete inhibition of STAT3 in vitro", "setting": "[10]; K7M2", "value": 10, "unit": "µM"},
      {"measurement": "exposure time for effective inhibition of STAT3 phosphorylation", "setting": "[10]; K7M2, 1 μM LY5", "value": 4, "unit": "h"},
      {"measurement": "concentration that decreased STAT3 phosphorylation", "setting": "[10]; K7M2, 2 hrs treatment", "value": 1, "unit": "µM"},
      {"measurement": "percent tumor burden in PuMA", "setting": "[11]", "value": "significantly decreased"}
    ]}
  ]
}
